Test results from ChEMBL document CHEMBL4321828, “Recent developments on (-)-colchicine derivatives: Synthesis and structure-activity relationship” (Eur J Med Chem, 2020).

How the values were obtained:
[1] = target: ATP-dependent translocase ABCB1 (Homo sapiens, UniProt P08183); experiment: Induction of P-gp in human LS180 cells assessed as […] in intracellular accumulation of Rh123 at 100 nM using Rho123 as substrate preincubated for 48 hrs followed by addition of Rh123 and measured after 90 mins by fluorescence based assay relative to control; assay type: cell-based; settings: ls180, 48 h preincubation, then 1.5 h with Rh123, 0.1 µM
Chain of ATP-dependent translocase ABCB1 (P08183 whole entry): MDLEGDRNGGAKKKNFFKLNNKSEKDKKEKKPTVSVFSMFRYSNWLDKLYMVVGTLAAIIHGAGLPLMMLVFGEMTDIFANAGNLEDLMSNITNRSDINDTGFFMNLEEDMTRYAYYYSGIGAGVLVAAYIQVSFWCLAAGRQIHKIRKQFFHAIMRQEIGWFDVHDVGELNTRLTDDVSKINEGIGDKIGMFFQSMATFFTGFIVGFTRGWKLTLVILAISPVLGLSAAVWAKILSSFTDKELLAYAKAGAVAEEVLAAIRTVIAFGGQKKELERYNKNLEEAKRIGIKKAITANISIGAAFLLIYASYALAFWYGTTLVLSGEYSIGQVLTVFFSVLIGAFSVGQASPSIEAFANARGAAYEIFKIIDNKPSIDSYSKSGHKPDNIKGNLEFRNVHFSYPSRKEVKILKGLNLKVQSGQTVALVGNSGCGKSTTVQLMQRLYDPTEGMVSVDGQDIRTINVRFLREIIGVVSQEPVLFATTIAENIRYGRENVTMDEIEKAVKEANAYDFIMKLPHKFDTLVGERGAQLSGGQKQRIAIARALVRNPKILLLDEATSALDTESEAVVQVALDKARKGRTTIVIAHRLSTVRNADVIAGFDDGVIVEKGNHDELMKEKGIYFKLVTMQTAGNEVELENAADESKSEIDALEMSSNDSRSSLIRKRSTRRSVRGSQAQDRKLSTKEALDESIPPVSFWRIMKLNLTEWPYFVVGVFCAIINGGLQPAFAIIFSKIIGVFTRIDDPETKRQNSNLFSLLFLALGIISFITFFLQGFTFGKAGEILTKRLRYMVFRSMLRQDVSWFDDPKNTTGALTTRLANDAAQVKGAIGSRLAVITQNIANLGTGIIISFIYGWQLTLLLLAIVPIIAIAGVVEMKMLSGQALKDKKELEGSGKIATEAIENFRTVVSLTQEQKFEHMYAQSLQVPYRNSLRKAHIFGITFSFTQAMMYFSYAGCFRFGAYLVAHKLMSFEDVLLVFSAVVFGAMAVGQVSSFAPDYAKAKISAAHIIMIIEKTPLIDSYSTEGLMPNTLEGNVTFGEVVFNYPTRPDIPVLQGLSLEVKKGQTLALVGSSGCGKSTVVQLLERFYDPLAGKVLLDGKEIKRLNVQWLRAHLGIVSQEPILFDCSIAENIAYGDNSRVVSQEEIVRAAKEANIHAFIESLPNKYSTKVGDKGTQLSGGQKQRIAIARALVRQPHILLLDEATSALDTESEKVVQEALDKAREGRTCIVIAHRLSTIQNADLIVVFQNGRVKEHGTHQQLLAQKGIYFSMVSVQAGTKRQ

HCT-116 = experiment: Antiproliferative activity against human HCT116 cells assessed as reduction in cell viability incubated for 48 hrs by MTT assay; assay type: functional, cell-based; settings: HCT-116, 48 h
COLO 205 = experiment: Antiproliferative activity against human COLO205 cells assessed as reduction in cell viability incubated for 48 hrs by MTT assay; assay type: functional, cell-based; settings: COLO 205, 48 h
MCF7 [2] = experiment: Antiproliferative activity against human MCF7 cells assessed as reduction in cell viability by MTT assay; assay type: functional, cell-based
A549 [3] = experiment: Antiproliferative activity against human A549 cells assessed as reduction in cell viability by MTT assay; assay type: functional, cell-based
A2780 = experiment: Antiproliferative activity against human A2780 cells assessed as reduction in cell viability by MTT assay; assay type: functional, cell-based
Bel-7402 = experiment: Antiproliferative activity against human Bel7402 cells assessed as reduction in cell viability by MTT assay; assay type: functional, cell-based
SK-MEL-2 = experiment: Antiproliferative activity against human SK-MEL-2 cells assessed as reduction in cell viability incubated for 24 hrs by SRB assay; assay type: functional, cell-based; settings: SK-MEL-2, 24 h
MCF7 [4] = experiment: Antiproliferative activity against human MCF7 cells assessed as reduction in cell viability incubated for 24 hrs by SRB assay; assay type: functional, cell-based; settings: MCF7, 24 h
HCT-15 = experiment: Antiproliferative activity against human HCT15 cells assessed as reduction in cell viability incubated for 24 hrs by SRB assay; assay type: functional, cell-based; settings: HCT-15, 24 h
A549 [5] = experiment: Antiproliferative activity against human A549 cells assessed as reduction in cell viability incubated for 24 hrs by SRB assay; assay type: functional, cell-based; settings: A549, 24 h
SK-OV-3 = experiment: Antiproliferative activity against human SKOV3 cells assessed as reduction in cell viability incubated for 24 hrs by SRB assay; assay type: functional, cell-based; settings: SK-OV-3, 24 h
MDA-MB-231 = experiment: Antiproliferative activity against human MDA-MB-231 cells assessed as reduction in cell viability; assay type: functional, cell-based
DLD-1 = experiment: Antiproliferative activity against human DLD1 cells assessed as reduction in cell viability; assay type: functional, cell-based
LoVo = experiment: Antiproliferative activity against human LoVo cells assessed as reduction in cell viability; assay type: functional, cell-based
MCF7 [6] = experiment: Antiproliferative activity against human MCF7 cells assessed as reduction in cell viability; assay type: functional, cell-based

`COc1cc2c(c(OC)c1OC)-c1ccc(N3CCC[C@@H]3CO)c(=O)cc1[C@@H](NC(C)=O)CC2` was tested, and the Activity [1] was 86.53%, the IC50 (HCT-116) was 10000 nM and the IC50 (COLO 205) was 8000 nM.
`COc1cc2c(c(OC)c1OC)-c1ccc(N3CCC(N)CC3)c(=O)cc1[C@@H](NC(C)=O)CC2` showed an Activity [1] of 102.04%, an IC50 (HCT-116) of 10000 nM and an IC50 (COLO 205) of 5000 nM.
`COc1cc2c(c(OC)c1OC)-c1ccc(Nc3ccc(F)c(Cl)c3)c(=O)cc1[C@@H](NC(C)=O)CC2` showed an Activity [1] of 90.05%, an IC50 (HCT-116) of 700 nM and an IC50 (COLO 205) of 500 nM.
With `CNc1ccc2c(cc1=O)[C@@H](NC(=O)CCC(=O)OCCCCO[N+](=O)[O-])CCc1cc(OC)c(OC)c(OC)c1-2` the IC50 (MCF7 [2]) was 8 nM, the IC50 (A549 [3]) was 12 nM and the IC50 (A2780) was 10 nM. The IC50 (Bel-7402) was 13 nM.
Work on `COc1cc2c(c(OC)c1OC)-c1ccc(N3CCCCC3)c(=O)cc1[C@@H](NC(C)=O)CC2` yielded an Activity [1] of 119.01%, an IC50 (HCT-116) of 3000 nM and an IC50 (COLO 205) of 1800 nM.
`COc1cc(/C=C/C(=O)N[C@H]2CCc3cc(OC)c(OC)c(OC)c3-c3ccc(SC)c(=O)cc32)ccc1O` gave an IC50 (SK-MEL-2) of 16.6 nM, an IC50 (MCF7 [4]) of 5.6 nM and an IC50 (HCT-15) of 10.8 nM. It also gave an IC50 (A549 [5]) of 5.8 nM and an IC50 (SK-OV-3) of 24.8 nM.
With `C=C(C)[C@@H]1CC=C(C(=O)N[C@H]2CCc3cc(OC)c(OC)c(OC)c3-c3ccc(SC)c(=O)cc32)CC1` the IC50 (SK-MEL-2) was 17.9 nM, the IC50 (MCF7 [4]) was 5.2 nM and the IC50 (HCT-15) was 8.1 nM. It also gave an IC50 (A549 [5]) of 7.5 nM and an IC50 (SK-OV-3) of 17.2 nM.
In the case of `COc1cc2c(c(OC)c1OC)-c1ccc(SC)c(=O)cc1[C@@H](NC(=O)Cc1ccccc1Nc1c(Cl)cccc1Cl)CC2`, the IC50 (SK-MEL-2) is reported as 1050 nM, the IC50 (MCF7 [4]) is reported as 296 nM and the IC50 (HCT-15) is reported as 306 nM. For the same compound, the IC50 (A549 [5]) was 520 nM and the IC50 (SK-OV-3) was 1500 nM.
For `CNc1ccc2c(cc1=O)[C@@H](NC(=O)CCC(=O)OCCCCCCO[N+](=O)[O-])CCc1cc(OC)c(OC)c(OC)c1-2`, the IC50 (MCF7 [2]) was 95 nM, the IC50 (A549 [3]) was 205 nM and the IC50 (A2780) was 109 nM. It also gave an IC50 (Bel-7402) of 86 nM.
In the case of `COc1cc2c(c(OC)c1OC)-c1ccc(N3CCN(C)CC3)c(=O)cc1[C@@H](NC(C)=O)CC2`, the Activity [1] is reported as 102.82%, the IC50 (HCT-116) is reported as 3000 nM and the IC50 (COLO 205) is reported as 1000 nM.
Work on `CCCCCCCCCCCCCC[C@H]1OC(C)(C)O[C@H]1[C@@H](NC(=O)OC(C)(C)C)C(=O)N[C@H]1CCc2cc(OC)c(OC)c(OC)c2-c2ccc(SC)c(=O)cc21` yielded an IC50 (SK-MEL-2) of 130 nM, an IC50 (MCF7 [4]) of 303 nM and an IC50 (HCT-15) of 204 nM. The IC50 (A549 [5]) was 228 nM and the IC50 (SK-OV-3) was 676 nM.
Compound `CCOC(=O)C1CCN(c2ccc3c(cc2=O)[C@@H](NC(C)=O)CCc2cc(OC)c(OC)c(OC)c2-3)CC1` has an Activity [1] of 95.49%, an IC50 (HCT-116) of over 10000 nM and an IC50 (COLO 205) of 8000 nM.
With `COc1cc2c(c(OC)c1OC)-c1ccc(N3CCCC3)c(=O)cc1[C@@H](NC(C)=O)CC2` the Activity [1] was 107.12%, the IC50 (HCT-116) was 300 nM and the IC50 (COLO 205) was 240 nM.
`COc1cc2c(c(OC)c1OC)-c1ccc(SC)c(=O)cc1[C@@H](NC(=O)CCC1=C(C)c3cc4[nH]c(cc5nc(cc6[nH]c(cc1n3)c(CCC(=O)N[C@H]1CCc3cc(OC)c(OC)c(OC)c3-c3ccc(SC)c(=O)cc31)c6C)C(C(C)O)=C5C)c(C(C)O)c4C)CC2` (stereo partly specified) was tested, and the IC50 (SK-MEL-2) was 2840 nM, the IC50 (MCF7 [4]) was 3220 nM and the IC50 (HCT-15) was 4840 nM. For the same compound, the IC50 (A549 [5]) was 1680 nM and the IC50 (SK-OV-3) was 2860 nM.
Work on `CCSc1ccc2c(cc1=O)[C@@H](NC(C)=O)CCc1cc(OC)c(OC)c(OC)c1-2` yielded an IC50 (MDA-MB-231) of 148 nM, an IC50 (DLD-1) of 51.2 nM and an IC50 (LoVo) of 19.5 nM. It also gave an IC50 (MCF7 [6]) of 56.1 nM.
With `COc1cc2c(c(OC)c1OC)-c1ccc(Nc3ccc4c(c3)OCO4)c(=O)cc1[C@@H](NC(C)=O)CC2` the Activity [1] was 102.66%, the IC50 (HCT-116) was 4000 nM and the IC50 (COLO 205) was 3000 nM.
For `COc1cc2c(c(OC)c1OC)-c1ccc(N3CCC4c5ccccc5NC4C3)c(=O)cc1[C@@H](NC(C)=O)CC2` (stereo partly specified), the Activity [1] was 119.7%, the IC50 (HCT-116) was 3000 nM and the IC50 (COLO 205) was 800 nM.
For `COc1cc2c(c(OC)c1OC)-c1ccc(SC(C)C)c(=O)cc1[C@@H](NC(C)=O)CC2`, the IC50 (MDA-MB-231) was 1100 nM, the IC50 (DLD-1) was 177 nM and the IC50 (LoVo) was 150 nM. The IC50 (MCF7 [6]) was 564 nM.
For `CCN(CC)c1ccc2c(cc1=O)[C@@H](NC(C)=O)CCc1cc(OC)c(OC)c(OC)c1-2`, the Activity [1] was 95.38%, the IC50 (HCT-116) was 800 nM and the IC50 (COLO 205) was 430 nM.
